Measured values: patent US20090232917A1, “COMPOSITION FOR RELIEVING SUBJECTIVE SYMPTOMS OF FATIGUE” (Kyowa Hakko Kogyo Co., Ltd., priority 2005, published 2009)

System: normal subjects (subjective symptoms of fatigue)
Experiment: Test Example 1: subjective symptoms of fatigue by visual analogue scale (VAS) method, tablets for 3 weeks
Type: in vivo, human
Conditions: 6 tablets of Example 1 per day for 3 weeks
Method: A test was carried out as follows. […] Evaluation was carried out in terms of the subjective symptoms of fatigue in the test subjects at the start and completion of the test using a visual analogue scale (VAS) method.
Specifically, each end of the segment has a criterion of expression. Referring to FIG. 1 or 2, each subject was allowed to mark somewhere in the segment, corresponding to each term of the questionnaires. Among the subjective symptoms of fatigue, questionnaires 1 to 8 represent indices related to “drowsiness and dullness”, and questionnaires 9 to 15 represent indices related to “difficulty in concentration”.
The distance (mm) from the left end of the segment to the marked point was measured and the difference between before and after the test was calculated. The difference by the value before the test was shown in the percentage calculated; and the average value and standard deviation for each group were calculated. […] Further, it was confirmed that there was no difference between two groups at the start of the test.
Further, the test was carried out under a random assignment and the comparison between the double blind parallel groups was carried out.

Cl.NCCC[C@H](N)C(=O)O [ornithine, ornithine hydrochloride]
relieving effect on subjective symptoms of fatigue, all terms (drowsiness and dullness; difficulty in concentration) (VAS questionnaires 1 to 15, versus placebo group, FIG. 3 and 4): relieving effect
"having difficulty thinking": difference between the placebo group and the ornithine group (VAS, unpaired t-test): significant difference
